Test [1] has as its target bafilomycin-sensitive ATPase in chicken osteoclasts. Briefly: Inhibition of bafilomycin-sensitive ATPase activity in purified osteoclast membrane vesicles (Pi release). The note with it: chicken osteoclast membranes, read-out: IC50 (μM) APase assay. In kind it is biochemical. Here is the method: Preparation of crude bone microsomes from calcium-starved egg-laying hens. Vesicles were prepared from medullar bone obtained from tibiae and femurs of egg-laying hens which were calcium-starved for at least 15 days. Briefly, bone fragments were scraped with a 24 scalpel blade, suspended in 40 ml of isolation medium (0.2 M sucrose, 50 mM KCl, 10 mM Hepes, 1 mM EGTA, 2 mM dithiotheitrol, pH 7.4) and filtered through a 100 μm pore size nylon mesh. The whole procedure was performed at 4° C. After homogenisation in a potter (20 strokes) in 40 ml of isolation medium an initial centrifugation (6,500×gmax ×20 min) was performed to remove mitochondria and lysosomes. […] The protein content was determined using a Biorad colourimetric kit according to Bradford [M. Bradford, Ana. […]
Inhibition of bafilomycin-sensitive ATPase activity was assessed in purified membrane vesicles by measuring the release of inorganic phosphate (Pi) during 30 min of incubation at 37° C. in a 96-well plate either in the presence or in the absence of bafilomycin Al. […] Absorbance at 650 nm was measured after 2 min using a microplate reader. Results are expressed as μmol (Pi)×mg protein^-1 ×hour^-1 and, for each experiment, represent the mean±sem of triplicates.

The next test relates to osteoclast proton pump. The following applies: avian osteoclast membrane vesicles, ATP-driven acidification; cited from earlier work.
The test system of the next test is osteoclast cultures. The following applies: cited from earlier work.

For the compound `O=C1OCCO/C1=C\C=C\c1cc2cc(Cl)c(Cl)cc2[nH]1` [Example 1, (2Z,4E) 3-[3-(5,6-Dichloro-1H-indol-2-yl)-2-propenyliden]-1,4-dioxan-2-one], the IC50 (in general, the concentration needed to halve the response being measured) in test [1] came out at 8.5 µM.

As to `CCN1C(=O)C=CC1=O` [N-ethylmaleimide (NEM), N-ethylmaleimide], in the test on osteoclast proton pump, the “inhibition of proton transport” value is recorded as “inhibited”.

On to `Cc1nc2c(OCc3ccccc3)cccn2c1CC#N` [SCH 28080], for which the “inhibition of proton transport” value in the test on osteoclast proton pump is “not inhibited”.

With `CO/C1=C\C(C)=C\[C@@H](C)[C@@H](O)[C@@H](C)C/C(C)=C/C=C/[C@H](OC)[C@@H]([C@@H](C)[C@@H](O)[C@H](C)[C@@]2(O)C[C@@H](O)[C@H](C)[C@@H](C(C)C)O2)OC1=O` [bafilomycin A1], in the test with osteoclast proton pump, the “inhibition of proton transport” value was “inhibited”. For the same compound, the “inhibition of bone resorption” value with osteoclast cultures was “able to inhibit bone resorption”.

In the case of `COc1ccc2[nH]c([S+]([O-])Cc3ncc(C)c(OC)c3C)nc2c1` (centres unmarked) [omeprazole], the “inhibition of proton transport” value in the test on osteoclast proton pump is on record as “not inhibited”.

Take `C[C@@H]1O[C@@H](O[C@H]2C[C@@H](O)[C@]3(CO)[C@H]4[C@H](O)C[C@]5(C)[C@@H](C6=CC(=O)OC6)CC[C@]5(O)[C@@H]4CC[C@]3(O)C2)[C@H](O)[C@H](O)[C@H]1O` [ouabain]: the “inhibition of proton transport” value with osteoclast proton pump is “not inhibited”.

On to `[Na+].[Na+].[Na+].[O]=[V]([O-])([O-])[O-]` [sodium orthovanadate], for which the “inhibition of proton transport” value with osteoclast proton pump was “not inhibited”.

Source of the values: patent US5985905A, “Indole derivatives for the treatment of osteoporosis” (priority 1996, dated 1999).
